Reference: ChEMBL document CHEMBL3045223, “Synthesis, nematicidal and antimicrobial properties of Bis-[4-methoxy-3-[3-(4-fluorophenyl)-6-(4-methylphenyl)-2(aryl)-tetrahydro-2H-pyrazolo[3,4-d]thiazol-5-yl]phenyl]methanes” (2009)
In brackets after ≈: the same amount, converted by molar mass. Activity calls are given as the source filed them. The calls are words filed in the database; no cut-off is given here.

Legend:
Format in all cases: functional
[1] = test system: Lysinibacillus sphaericus; assay: Antibacterial activity against Lysinibacillus sphaericus MTCC 11 assessed as inhibition zones at 100 ug/disk at 37 degC for 24 hr; details: MTCC 11, 24 h, read-out: IZ
[2] = test system: Lysinibacillus sphaericus; assay: Antibacterial activity against Lysinibacillus sphaericus MTCC 11 assessed as growth arrest at 37 degC for 24 hr; details: MTCC 11, 24 h
[3] = test system: Bacillus subtilis; assay: Antibacterial activity against Bacillus subtilis MTCC 441 assessed as inhibition zones at 100 ug/disk at 37 degC for 24 hr; details: MTCC 441, 24 h, read-out: IZ
[4] = test system: Chromobacterium violaceum; assay: Antibacterial activity against Chromobacterium violaceum MTCC 2656 assessed as inhibition zones at 100 ug/disk at 37 degC for 24 hr; details: MTCC 2656, 24 h, read-out: IZ
[5] = test system: Staphylococcus aureus; assay: Antibacterial activity against Staphylococcus aureus MTCC 96 assessed as inhibition zones at 100 ug/disc at 37 degC for 24 hr; details: MTCC 96, 24 h, read-out: IZ
[6] = test system: Chromobacterium violaceum; assay: Antibacterial activity against Chromobacterium violaceum MTCC 2656 assessed as growth arrest at 37 degC for 24 hr; details: MTCC 2656, 24 h
[7] = test system: Pseudomonas aeruginosa; assay: Antibacterial activity against Pseudomonas aeruginosa MTCC 741 assessed as inhibition zones at 100 ug/disk at 37 degC for 24 hr; details: MTCC 741, 24 h, read-out: IZ
[8] = test system: Staphylococcus aureus; assay: Antibacterial activity against Staphylococcus aureus MTCC 96 assessed as growth arrest at 37 degC for 24 hr; details: MTCC 96, 24 h
[9] = test system: Pseudomonas aeruginosa; assay: Antibacterial activity against Pseudomonas aeruginosa MTCC 741 assessed as growth arrest at 37 degC for 24 hr; details: MTCC 741, 24 h
[10] = test system: Klebsiella aerogenes; assay: Antibacterial activity against Enterobacter aerogenes MTCC 39 assessed as inhibition zones at 100 ug/disk at 37 degC for 24 hr; details: MTCC 39, 24 h, read-out: IZ
[11] = test system: Bacillus subtilis; assay: Antibacterial activity against Bacillus subtilis MTCC 441 assessed as growth arrest at 37 degC for 24 hr; details: MTCC 441, 24 h
[12] = test system: Klebsiella aerogenes; assay: Antibacterial activity against Enterobacter aerogenes MTCC 39 assessed as growth arrest at 37 degC for 24 hr; details: MTCC 39, 24 h
[13] = test system: Chromobacterium violaceum; assay: Antibacterial activity against Chromobacterium violaceum MTCC 2656 assessed as inhibition zones at 300 ug/disk at 37 degC for 24 hr; details: MTCC 2656, 24 h, read-out: IZ
[14] = test system: Candida albicans; assay: Antifungal activity against Candida albicans ATCC 10231 assessed as growth inhibition at 37 degC for 48 hr; details: ATCC 10231, 48 h
[15] = test system: Ditylenchus myceliophagus; assay: Nematicidal activity against Ditylenchus myceliophagus assessed as immobility; details: read-out: LD50 (the source's name)
[16] = test system: Aspergillus fumigatus; assay: Antifungal activity against Aspergillus fumigatus HIC 6094 assessed as growth inhibition at 300 ug/disc at 37 degC for 48 hr; details: for zone of inhibition at 300 µg/disc: HIC 6094, 48 h, read-out: IZ
[17] = test system: Aspergillus fumigatus; assay: Antifungal activity against Aspergillus fumigatus HIC 6094 assessed as growth inhibition at 37 degC for 48 hr
[18] = test system: Caenorhabditis elegans; assay: Nematicidal activity against Caenorhabditis elegans assessed as immobility; details: read-out: LD50 (the source's name)
[19] = test system: Bacillus subtilis; assay: Antibacterial activity against Bacillus subtilis MTCC 441 assessed as inhibition zones at 300 ug/disk at 37 degC for 24 hr; details: MTCC 441, 24 h, read-out: IZ
[20] = test system: Pseudomonas aeruginosa; assay: Antibacterial activity against Pseudomonas aeruginosa MTCC 741 assessed as inhibition zones at 300 ug/disk at 37 degC for 24 hr; details: MTCC 741, 24 h, read-out: IZ
[21] = test system: Trichophyton rubrum; assay: Antifungal activity against Trichophyton rubrum IFO 9185 assessed as growth inhibition at 37 degC for 48 hr
[22] = test system: Lysinibacillus sphaericus; assay: Antibacterial activity against Lysinibacillus sphaericus MTCC 11 assessed as inhibition zones at 300 ug/disk at 37 degC for 24 hr; details: MTCC 11, 24 h, read-out: IZ
[23] = test system: Trichophyton rubrum; assay: Antifungal activity against Trichophyton rubrum IFO 9185 assessed as growth inhibition at 300 ug/disk at 37 degC for 48 hr
[24] = test system: Candida albicans; assay: Antifungal activity against Candida albicans ATCC 10231 assessed as growth inhibition at 300 ug/disk at 37 degC for 48 hr; details: for zone of inhibition at 300 µg/disc: ATCC 10231, 48 h, read-out: IZ
[25] = test system: Trichophyton mentagrophytes; assay: Antifungal activity against Trichophyton mentagrophytes IFO 40996 assessed as growth inhibition at 300 ug/disc at 37 degC for 48 hr
[26] = test system: Trichophyton mentagrophytes; assay: Antifungal activity against Trichophyton mentagrophytes IFO 40996 assessed as growth inhibition at 37 degC for 48 hr
[27] = test system: Klebsiella aerogenes; assay: Antibacterial activity against Enterobacter aerogenes MTCC 39 assessed as inhibition zones at 300 ug/disk at 37 degC for 24 hr; details: MTCC 39, 24 h, read-out: IZ
[28] = test system: Staphylococcus aureus; assay: Antibacterial activity against Staphylococcus aureus MTCC 96 assessed as inhibition zones at 300 ug/disc at 37 degC for 24 hr; details: MTCC 96, 24 h, read-out: IZ

Row | Compound | MBC [2] | MIC [2] | MBC [6] | MIC [6] | MBC [8] | MIC [8] | MBC [9] | MIC [9] | MBC [11] | MIC [11] | MBC [12] | MIC [12] | zone of inhibition at 300 µg/disc [13] | MBC [14] | MIC [14] | LC50 [15] | LC50 [18] | zone of inhibition at 300 µg/disc [19] | zone of inhibition at 300 µg/disc [20] | zone of inhibition at 300 µg/disc [22] | also measured
1 | CN[C@@H]1[C@H](O[C@H]2[C@H](O[C@H]3[C@H](O)[C@@H](O)[C@H](N=C(N)N)[C@@H](O)[C@@H]3N=C(N)N)O[C@@H](C)[C@]2(O)C=O)O[C@@H](CO)[C@H](O)[C@H]1O [STREPTOMYCIN] | 25 µg/mL (≈ 43 µM) | 6.25 µg/mL (≈ 10.7 µM) | 6.25 µg/mL (≈ 10.7 µM) | 3.12 µg/mL (≈ 5.36 µM) | 12.5 µg/mL (≈ 21.5 µM) | 6.25 µg/mL (≈ 10.7 µM) | 6.25 µg/mL (≈ 10.7 µM) | 1.56 µg/mL (≈ 2.68 µM) | 12.5 µg/mL (≈ 21.5 µM) | 6.25 µg/mL (≈ 10.7 µM) | 6.25 µg/mL (≈ 10.7 µM) | 1.56 µg/mL (≈ 2.68 µM) | – | – | – | – | – | – | – | – | zone of inhibition at 100 µg/disc [1]: 20 mm; zone of inhibition at 100 µg/disc [3]: 30 mm; zone of inhibition at 100 µg/disc [4]: 20 mm; zone of inhibition at 100 µg/disc [5]: 41 mm; zone of inhibition at 100 µg/disc [7]: 15 mm; zone of inhibition at 100 µg/disc [10]: 25 mm
2 | COc1ccc(Cc2ccc(OC)c(C3SC4C(=NN(C(C)C)C4c4ccc(F)cc4)N3c3ccc(C)cc3)c2)cc1C1SC2C(=NN(C(C)C)C2c2ccc(F)cc2)N1c1ccc(C)cc1 (configuration not stated) | 50 µg/mL (≈ 53.5 µM) | 50 µg/mL (≈ 53.5 µM) | 25 µg/mL (≈ 26.7 µM) | 25 µg/mL (≈ 26.7 µM) | 50 µg/mL (≈ 53.5 µM) | 25 µg/mL (≈ 26.7 µM) | 12.5 µg/mL (≈ 13.4 µM) | 6.25 µg/mL (≈ 6.68 µM) | 50 µg/mL (≈ 53.5 µM) | 25 µg/mL (≈ 26.7 µM) | 12.5 µg/mL (≈ 13.4 µM) | 12.5 µg/mL (≈ 13.4 µM) | 16 mm | 25 µg/mL (≈ 26.7 µM) | 12.5 µg/mL (≈ 13.4 µM) | 550 µg/mL (≈ 588 µM) | 600 µg/mL (≈ 642 µM) | 13 mm | 23 mm | 13 mm | zone of inhibition at 300 µg/disc [16]: 13 mm; MBC [17]: inactive; MIC [17]: inactive; MBC [21]: inactive; MIC [21]: inactive; inhibition zone (IZ) [23]: inactive; inhibition zone (IZ) [24]: inactive; inhibition zone (IZ) [25]: inactive; MBC [26]: inactive; MIC [26]: inactive; zone of inhibition at 300 µg/disc [27]: 19 mm; zone of inhibition at 300 µg/disc [28]: 23 mm
3 | CC1(C)S[C@@H]2[C@H](NC(=O)Cc3ccccc3)C(=O)N2[C@H]1C(=O)O [PENICILLIN G] | 25 µg/mL (≈ 74.8 µM) | 3.12 µg/mL (≈ 9.33 µM) | 12.5 µg/mL (≈ 37.4 µM) | 12.5 µg/mL (≈ 37.4 µM) | 6.25 µg/mL (≈ 18.7 µM) | 1.56 µg/mL (≈ 4.67 µM) | 12.5 µg/mL (≈ 37.4 µM) | 6.25 µg/mL (≈ 18.7 µM) | 6.25 µg/mL (≈ 18.7 µM) | 1.56 µg/mL (≈ 4.67 µM) | 12.5 µg/mL (≈ 37.4 µM) | 6.25 µg/mL (≈ 18.7 µM) | – | – | – | – | – | – | – | – | zone of inhibition at 100 µg/disc [1]: 28 mm; zone of inhibition at 100 µg/disc [3]: 25 mm; zone of inhibition at 100 µg/disc [4]: 25 mm; zone of inhibition at 100 µg/disc [5]: 40 mm; zone of inhibition at 100 µg/disc [7]: 25 mm; zone of inhibition at 100 µg/disc [10]: 30 mm
4 | COc1ccc(Cc2ccc(OC)c(C3SC4C(=NN(c5ccc(Cl)cc5)C4c4ccc(F)cc4)N3c3ccc([N+](=O)[O-])cc3)c2)cc1C1SC2C(=NN(c3ccc(Cl)cc3)C2c2ccc(F)cc2)N1c1ccc([N+](=O)[O-])cc1 (configuration not stated) | 50 µg/mL (≈ 44.1 µM) | 12.5 µg/mL (≈ 11 µM) | 50 µg/mL (≈ 44.1 µM) | 12.5 µg/mL (≈ 11 µM) | 25 µg/mL (≈ 22 µM) | 6.25 µg/mL (≈ 5.51 µM) | 50 µg/mL (≈ 44.1 µM) | 50 µg/mL (≈ 44.1 µM) | 50 µg/mL (≈ 44.1 µM) | 6.25 µg/mL (≈ 5.51 µM) | 25 µg/mL (≈ 22 µM) | 12.5 µg/mL (≈ 11 µM) | 16 mm | 25 µg/mL (≈ 22 µM) | 25 µg/mL (≈ 22 µM) | 230 µg/mL (≈ 203 µM) | 350 µg/mL (≈ 309 µM) | 21 mm | 16 mm | 16 mm | inhibition zone (IZ) [16]: inactive; MBC ([17]; HIC 6094, 48 h): 50 µg/mL (≈ 44.1 µM); MIC ([17]; HIC 6094, 48 h): 25 µg/mL (≈ 22 µM); MBC ([21]; IFO 9185, 48 h): 50 µg/mL (≈ 44.1 µM); MIC ([21]; IFO 9185, 48 h): 25 µg/mL (≈ 22 µM); inhibition zone (IZ) [23]: inactive; zone of inhibition at 300 µg/disc [24]: 15 mm; inhibition zone (IZ) [25]: inactive; MBC ([26]; IFO 40996, 48 h): 12.5 µg/mL (≈ 11 µM); MIC ([26]; IFO 40996, 48 h): 6.25 µg/mL (≈ 5.51 µM); zone of inhibition at 300 µg/disc [27]: 20 mm; zone of inhibition at 300 µg/disc [28]: 16 mm
5 | COc1ccc(Cc2ccc(OC)c(C3SC4C(=NN(C)C4c4ccc(F)cc4)N3c3ccc([N+](=O)[O-])cc3)c2)cc1C1SC2C(=NN(C)C2c2ccc(F)cc2)N1c1ccc([N+](=O)[O-])cc1 (configuration not stated) | 25 µg/mL (≈ 26.6 µM) | 12.5 µg/mL (≈ 13.3 µM) | 12.5 µg/mL (≈ 13.3 µM) | 12.5 µg/mL (≈ 13.3 µM) | 25 µg/mL (≈ 26.6 µM) | 12.5 µg/mL (≈ 13.3 µM) | 12.5 µg/mL (≈ 13.3 µM) | 12.5 µg/mL (≈ 13.3 µM) | 6.25 µg/mL (≈ 6.64 µM) | 6.25 µg/mL (≈ 6.64 µM) | 25 µg/mL (≈ 26.6 µM) | 12.5 µg/mL (≈ 13.3 µM) | 18 mm | 25 µg/mL (≈ 26.6 µM) | 12.5 µg/mL (≈ 13.3 µM) | 180 µg/mL (≈ 191 µM) | 200 µg/mL (≈ 213 µM) | 16 mm | 12 mm | 20 mm | zone of inhibition at 300 µg/disc [16]: 14 mm; MBC ([17]; HIC 6094, 48 h): 25 µg/mL (≈ 26.6 µM); MIC ([17]; HIC 6094, 48 h): 12.5 µg/mL (≈ 13.3 µM); MBC ([21]; IFO 9185, 48 h): 25 µg/mL (≈ 26.6 µM); MIC ([21]; IFO 9185, 48 h): 12.5 µg/mL (≈ 13.3 µM); zone of inhibition at 300 µg/disc ([23]; IFO 9185, 48 h, read-out: IZ): 15 mm; zone of inhibition at 300 µg/disc [24]: 21 mm; zone of inhibition at 300 µg/disc ([25]; IFO 40996, 48 h, read-out: IZ): 14 mm; MBC ([26]; IFO 40996, 48 h): 25 µg/mL (≈ 26.6 µM); MIC ([26]; IFO 40996, 48 h): 12.5 µg/mL (≈ 13.3 µM); zone of inhibition at 300 µg/disc [27]: 19 mm; zone of inhibition at 300 µg/disc [28]: 21 mm
